Experimental data as given in patent US20250100947A1, “NITROUS OXIDE INHIBITOR” (His Majesty the King in Right of New Zealand Acting Through …, priority 2021, published 2025).

How the values were obtained:
[1] = tested on: N2O emissions from urine-treated pasture soil; assay: Field trial, static chamber N2O emissions from simulated cattle urine patches; conditions: for Net emitted: control subtracted
Text: A trial site was fenced off and stock excluded for about 14 weeks, until the commencement of the field trials, to avoid interference from fresh dung and urine inputs and reduce spatial heterogeneity/variability from the previous uneven deposition of dung and urine.
Approximately two weeks before the commencement of the trial, pasture was mown to 50 mm height, 4 soil samples (to 100 mm depth) were collected for physicochemical characterisation and Field plots were established in a randomised complete block design with 5 treatments as shown in Table 1. Plot size was 2.5×2.5 m for all treatments with an additional buffer area of at least 0.5 m between adjacent plots.
Natural urine deposition was simulated with 2 L cattle urine (containing 8.35 g N L^−1) in large static chambers allowing for urine edge-effect. All solutions containing a N2O inhibitor were applied at the same rate (30 mL/Chambers; 600 L/ha). For all urine treatments, 2 L urine was poured to the central point of the chamber base area at a height of approximately 1.2 m and allowed to spread naturally. To mimic the “Spikey®” urine patch treatment, a spot-sprayer system (supplied by Pastoral Robotics Limited) was used for treating the urine patch in the large chambers. All the inhibitor compositions were applied to the relevant treatments within 4 h after urine application.
A static chamber technique was used to measure N2O emissions, and the methodology was based on that used in a previous published study on N2O emissions (Luo et al 2015). One week before the trial began, static chamber bases (80 cm diameter) were inserted into the soil. Herbage within the chamber base and the ring areas was cut to 50 mm above ground level before the application of the treatments.
Pre-treatment gas flux was taken from each chamber a day before the application of treatments to determine the spatial variability of background of N2O flux between the plots and to assist with interpretation of patterns of N2O flux from individual sampling plots post treatment application as a covariate for statistical analysis of post-treatment emissions.
Post treatment gas measurements were carried out at 2, 24 and 72 h after application of the urine and inhibitor compositions, twice a week for the first 8 weeks and thereafter weekly. The measurements were continued until the N2O flux values for treatment plots reached the background levels measured in the control plots. During weekly phases of N2O flux measurement, additional sampling occurred as soon as practical following rainfall events of greater than 10 mm of rain in the previous 24 h. On each sampling day, N2O measurements were carried out between 1000 and 1200 h. Gas samples from chamber headspace were taken during a cover period of 100 minutes at times t0, […] (or similar). Two background atmosphere samples were also taken on each sampling day at each site. […] The measurements of N2O emission from the treatment plots continued until the first week of September. During this period, 3 pasture harvests were taken, and herbage samples analysed for N content.
Nitrous oxide concentration of gas samples were analysed by gas chromatograph using a Shimadzu GC-17a gas chromatograph equipped with a 63Ni-electroncapture detector (oven, valve and detector temperatures were operated at 65, 100 and 280° C., respectively, using oxygen-free N as a carrier gas and connected to an automatic sampler capable of handling up to 120 samples, and a SRI 8610 automated gas chromatograph. Chamber temperatures were recorded at the beginning and end of the cover period and the average of the two readings were considered the chamber temperature for calculating gas flux. The increase in N2O concentration within the chamber headspace, for the gas samples collected at t0, t50 and t100 was generally linear (R2>0.90). Therefore, the hourly N2O fluxes will be calculated using linear regression and the ideal gas law according to Equation 1: […]

[2] = tested on: soil potential denitrification (DEA) enzyme activity; assay: Soil denitrification enzyme activity (DEA) short-term incubation; format: biochemical
Procedure: Short-term incubation studies were conducted to determine the effect of the compound of the invention on soil potential denitrification (DEA) enzyme activity. Details of each assay are described in Zhong et al. (2015, 2016).
The denitrification assay involved testing the effect of five ALBSO treatments: 0 (water only), carrier (formic acid only), low (0.011 μg ALBSO g^−1 dry soil), high (0.046 μg ALBSO g^−1 dry soil) and very high (0.91 μg ALBSO g^−1 dry soil) at a common N rate delivered as KNO3.
The ALBSO treatments were formulated with an absolute minimum amount of formic acid needed to just dissolve the required amount of ALBSO into solution. Identical amounts of formic acid were used to formulate the carrier, low, high and very high ALBSO treatments, with the carrier containing only formic acid and water. The pH of carrier, low, high and very high ALBSO treatment solutions was identical and mildly acidic.
After a 4-hour incubation period, N2O concentrations were lower (P<0.008) for incubation vessels that had been treated with ALBSO. […] Typically, results for this kind of incubation become unreliable after 6 hours, however, the 8 hour sampling in case the high level of N addition allowed for a longer period of microbial activity.
A further incubation was performed to test the effect of the carrier as well as the high rate of ALBSO on denitrification enzyme activity.
The final incubation included a treatment where acetylene was not added. The use of acetylene gives further information on whether the ALBSO effect on denitrification is due to effects on enzymes linked to nirK and nirS (with acetylene) or nosZ (without acetylene) genes. […] Letters refer to ALBSO effects within acetylene treatments (LSD 5.3, n=3).

[3] = tested on: NO3^− leaching from grazed pasture soil; assay: Field lysimeter study of nitrate leaching from cow urine; conditions: for % Reduction of leaching due to inhibitor: compared to the urine only treatment, P<0.05; for Total leaching: cow urine 600 kg N ha^−1, inhibitor applied within 1 hour, DCD at 10 kg ha^−1, urine alone 358
Procedure: A field lysimeter study was conducted to examine the effects of albendazole sulfoxide on NO3^− leaching resulting from cow urine applied to a grazed pasture (at a loading rate of about 600 kg N ha^−1). The field lysimeter experiment was a randomized complete block design with the following treatments: • Control (no urine and no inhibitor) • Urine alone (600 kg N ha^−1) • Urine plus DCD (DCD solution at 10 kg ha^−1) • Urine plus albendazole sulfoxide (supplied by AgResearch Palmerston North)
Urine was collected from dairy cows that had been grazing an established ryegrass-white clover pasture. The cow urine was bulked and held at 4° C. for a few days prior to application. The urine was applied in a single application at an N loading rate of 600 kg N ha^−1 and a hydraulic loading rate of 10 L m^−2 to simulate dairy cow urine deposition. […] The treatments were replicated 6 times.
These urine and inhibitor treatments were also simultaneously applied to associated 0.5 m^2 plots so that soil samples could be taken throughout the trial to monitor mineral N transformations and moisture levels.
Leachate volumes were measured from the lysimeters when drainage occurred over the drainage period (May-October). Subsamples of leachate were collected and frozen at −20° C. prior to analysis for nitrate N(NO3^−N) and ammonium N(NH4^+—N) using a Skalar SAN^++ segmented auto flow analyser (Skalar Analytical B.V., Breda, Netherlands).

[4] = Urine + high concentration ALBSO (900 μg), UA1
[5] = Urine + low concentration ALBSO (266 μg), UA2

Compound: CCC[S+]([O-])c1ccc2[nH]c(NC(=O)OC)nc2c1 (stereo not drawn) [ALBSO, methyl [5-(propane-1-sulfinyl)-1H-benzoimidazol-2-yl]-carbamate]
- Total emitted ([1]; Urine 2 L + high concentration ALBSO (900 μg in 0.054M formic acid), UA1, cumulative over 4 months): 3703 g N2O—N
- Total emitted ([1]; Urine 2 L + low concentration ALBSO (266 μg in 0.054M formic acid), UA2, cumulative over 4 months): 3147 g N2O—N
- EF3 (% of applied N emitted) [1, 4]: 0.84 % of applied N emitted
- Net emitted [1, 4]: 2807 g N2O—N
- EF3 (% of applied N emitted) [1, 5]: 0.68 % of applied N emitted
- Net emitted [1, 5]: 2251 g N2O—N
- Emissions from treated urine ([1]; urine treated with low concentration ALBSO composition): 3147 g N2O—N ha^−1
- ppm N2O after 4 h ([2]; High (0.046 μg ALBSO g^−1 dry soil), first incubation, n=3, H2O 138): 102 ppm N2O
- ppm N2O after 8 h ([2]; High (0.046 μg ALBSO g^−1 dry soil), first incubation, H2O 236): 217 ppm N2O
- N2O concentration after 4-hour incubation, acetylene not added ([2]; High ALBSO, final incubation, n=3, Acetylene No, H2O 97.3): 84.7a ppm N2O
- N2O concentration after 4-hour incubation, acetylene added ([2]; High ALBSO, final incubation, n=3, Acetylene Yes, H2O 96.9): 90.9a ppm N2O
- ppm N2O after 4 h ([2]; High rate of ALBSO, further incubation with carrier, n=4, H2O 97): 90 ppm N2O
- ppm N2O after 8 h ([2]; High rate of ALBSO, further incubation with carrier, n=4, H2O 137): 131 ppm N2O
- ppm N2O after 4 h ([2]; Low (0.011 μg ALBSO g^−1 dry soil), first incubation, n=3, H2O 138): 96 ppm N2O
- ppm N2O after 8 h ([2]; Low (0.011 μg ALBSO g^−1 dry soil), first incubation, H2O 236): 233 ppm N2O
- ppm N2O after 4 h ([2]; Very High (0.91 μg ALBSO g^−1 dry soil), first incubation, n=3, H2O 138): 86 ppm N2O
- ppm N2O after 8 h ([2]; Very High (0.91 μg ALBSO g^−1 dry soil), first incubation, H2O 236): 232 ppm N2O
- N2O concentrations after 4-hour incubation, treated vs untreated vessels ([2]; all ALBSO amounts, P<0.008, 28° C., anaerobic): lower
- Effect on reducing N2O over both acetylene treatments ([2]; final incubation, P=0.005): significant effect of ALBSO on reducing N2O
- % Reduction of leaching due to inhibitor [3]: 20%
- Total leaching [3]: 289 kg NO3^−—N ha^−1

Compound: N#CN=C(N)N [DCD, dicyandiamide, reference compound]
- Total emitted ([1]; Urine 2 L (16.70 g N) + DCD (0.25 g N), UDCD, cumulative over 4-month measurement period): 3142 g N2O—N
- EF3 (% of applied N emitted) ([1]; Urine + DCD (0.25 g N), UDCD): 0.67 % of applied N emitted
- Net emitted ([1]; Urine + DCD (0.25 g N), UDCD): 2246 g N2O—N
- Emissions from treated urine ([1]; urine treated with DCD): 3142±300 g N2O—N ha^−1
- % Reduction of leaching due to inhibitor [3]: 30%
- Total leaching [3]: 253 kg NO3^−—N ha^−1
